One assay concerns the target USP7 (Homo sapiens, UniProt Q93009). As to the kind of experiment: biochemical.
The target of another assay is USP2 (Homo sapiens, UniProt O75604). The assay can be described thus: selectivity panel of […] purified DUBs, ubiquitin-AMC substrate. Format: biochemical.
A further assay addresses USP11 (Homo sapiens, UniProt P51784). As to the kind of experiment: selectivity panel of […] purified DUBs, ubiquitin-AMC substrate; ABPP DUBome. Format: biochemical.
In a further assay the target is T1, USP1 (Homo sapiens, UniProt O94782).
T1 sequence (O94782 1-785): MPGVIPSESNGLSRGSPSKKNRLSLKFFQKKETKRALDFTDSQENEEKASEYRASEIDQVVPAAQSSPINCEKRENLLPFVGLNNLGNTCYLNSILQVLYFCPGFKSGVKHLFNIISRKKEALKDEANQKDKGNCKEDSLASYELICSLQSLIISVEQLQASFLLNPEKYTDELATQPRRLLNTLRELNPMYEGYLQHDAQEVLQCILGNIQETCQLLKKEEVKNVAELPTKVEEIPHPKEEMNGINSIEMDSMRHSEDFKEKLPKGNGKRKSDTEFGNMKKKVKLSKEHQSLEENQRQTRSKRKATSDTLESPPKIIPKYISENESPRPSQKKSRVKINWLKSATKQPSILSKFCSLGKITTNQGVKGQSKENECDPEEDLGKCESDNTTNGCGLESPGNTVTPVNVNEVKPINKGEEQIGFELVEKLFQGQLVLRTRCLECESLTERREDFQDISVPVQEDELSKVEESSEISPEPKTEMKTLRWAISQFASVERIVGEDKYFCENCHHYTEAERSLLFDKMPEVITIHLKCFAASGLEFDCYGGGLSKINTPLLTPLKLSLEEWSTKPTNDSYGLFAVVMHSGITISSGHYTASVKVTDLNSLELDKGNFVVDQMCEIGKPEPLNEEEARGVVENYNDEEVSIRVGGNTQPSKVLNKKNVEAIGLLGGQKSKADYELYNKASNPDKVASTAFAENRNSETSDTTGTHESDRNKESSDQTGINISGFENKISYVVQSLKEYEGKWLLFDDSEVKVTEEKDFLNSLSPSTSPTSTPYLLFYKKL
Described as above. The format is biochemical.

Like-named read-outs stand apart in the source and are kept apart here.

Data on two molecules can be found in PMC12390941, “Ubiquitin-specific protease 7-mediated stabilization of discoidin domain receptor 1 drives progression of TP53-Mutant cancers” (The Journal of Biological Chemistry, 2025).

Sequence of USP7 (Q93009 whole entry): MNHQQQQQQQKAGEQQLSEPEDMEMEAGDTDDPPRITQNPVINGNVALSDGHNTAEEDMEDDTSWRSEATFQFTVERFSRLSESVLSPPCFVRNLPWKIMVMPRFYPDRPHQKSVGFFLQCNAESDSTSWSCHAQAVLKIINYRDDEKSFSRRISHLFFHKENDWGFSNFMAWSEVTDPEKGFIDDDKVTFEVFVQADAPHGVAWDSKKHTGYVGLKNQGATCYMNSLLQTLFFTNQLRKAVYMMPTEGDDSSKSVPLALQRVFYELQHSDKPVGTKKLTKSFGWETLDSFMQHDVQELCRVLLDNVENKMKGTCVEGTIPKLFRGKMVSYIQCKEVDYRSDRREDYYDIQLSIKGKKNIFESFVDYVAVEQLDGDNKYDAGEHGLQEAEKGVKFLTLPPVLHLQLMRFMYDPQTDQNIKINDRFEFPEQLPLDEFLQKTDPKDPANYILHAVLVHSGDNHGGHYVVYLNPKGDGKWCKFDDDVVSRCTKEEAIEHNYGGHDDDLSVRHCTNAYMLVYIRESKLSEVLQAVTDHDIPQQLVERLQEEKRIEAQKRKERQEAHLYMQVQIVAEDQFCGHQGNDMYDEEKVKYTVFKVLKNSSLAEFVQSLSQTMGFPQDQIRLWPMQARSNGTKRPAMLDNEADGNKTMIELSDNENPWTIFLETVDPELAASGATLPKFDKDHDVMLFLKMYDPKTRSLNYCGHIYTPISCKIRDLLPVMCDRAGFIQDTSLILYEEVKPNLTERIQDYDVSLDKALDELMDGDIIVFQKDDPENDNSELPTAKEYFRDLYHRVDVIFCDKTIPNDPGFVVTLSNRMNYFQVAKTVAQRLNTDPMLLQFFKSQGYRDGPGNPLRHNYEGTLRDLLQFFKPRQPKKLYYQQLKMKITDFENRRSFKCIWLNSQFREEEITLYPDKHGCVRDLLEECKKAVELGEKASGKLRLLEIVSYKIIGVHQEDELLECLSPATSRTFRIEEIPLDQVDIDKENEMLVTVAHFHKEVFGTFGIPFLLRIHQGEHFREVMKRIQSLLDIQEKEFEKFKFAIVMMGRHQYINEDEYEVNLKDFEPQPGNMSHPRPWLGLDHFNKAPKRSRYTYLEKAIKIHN
Sequence of USP2 (O75604 whole entry): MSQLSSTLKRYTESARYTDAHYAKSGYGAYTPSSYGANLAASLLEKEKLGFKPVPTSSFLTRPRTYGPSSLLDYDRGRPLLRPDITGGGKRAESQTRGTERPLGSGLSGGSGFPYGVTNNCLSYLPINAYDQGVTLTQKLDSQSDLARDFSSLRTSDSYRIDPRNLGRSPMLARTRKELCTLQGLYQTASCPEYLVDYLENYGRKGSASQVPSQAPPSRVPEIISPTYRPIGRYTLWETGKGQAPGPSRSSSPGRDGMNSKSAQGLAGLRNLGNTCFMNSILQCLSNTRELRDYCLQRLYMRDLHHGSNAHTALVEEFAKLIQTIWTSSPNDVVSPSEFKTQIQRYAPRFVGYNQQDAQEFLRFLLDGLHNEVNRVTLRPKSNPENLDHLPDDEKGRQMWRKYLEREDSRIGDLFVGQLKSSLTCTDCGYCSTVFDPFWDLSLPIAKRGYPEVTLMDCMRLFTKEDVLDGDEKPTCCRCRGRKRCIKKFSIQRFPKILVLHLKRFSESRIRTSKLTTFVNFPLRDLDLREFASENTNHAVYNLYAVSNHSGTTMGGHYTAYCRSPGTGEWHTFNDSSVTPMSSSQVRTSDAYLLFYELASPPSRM
Sequence of USP11 (P51784 whole entry): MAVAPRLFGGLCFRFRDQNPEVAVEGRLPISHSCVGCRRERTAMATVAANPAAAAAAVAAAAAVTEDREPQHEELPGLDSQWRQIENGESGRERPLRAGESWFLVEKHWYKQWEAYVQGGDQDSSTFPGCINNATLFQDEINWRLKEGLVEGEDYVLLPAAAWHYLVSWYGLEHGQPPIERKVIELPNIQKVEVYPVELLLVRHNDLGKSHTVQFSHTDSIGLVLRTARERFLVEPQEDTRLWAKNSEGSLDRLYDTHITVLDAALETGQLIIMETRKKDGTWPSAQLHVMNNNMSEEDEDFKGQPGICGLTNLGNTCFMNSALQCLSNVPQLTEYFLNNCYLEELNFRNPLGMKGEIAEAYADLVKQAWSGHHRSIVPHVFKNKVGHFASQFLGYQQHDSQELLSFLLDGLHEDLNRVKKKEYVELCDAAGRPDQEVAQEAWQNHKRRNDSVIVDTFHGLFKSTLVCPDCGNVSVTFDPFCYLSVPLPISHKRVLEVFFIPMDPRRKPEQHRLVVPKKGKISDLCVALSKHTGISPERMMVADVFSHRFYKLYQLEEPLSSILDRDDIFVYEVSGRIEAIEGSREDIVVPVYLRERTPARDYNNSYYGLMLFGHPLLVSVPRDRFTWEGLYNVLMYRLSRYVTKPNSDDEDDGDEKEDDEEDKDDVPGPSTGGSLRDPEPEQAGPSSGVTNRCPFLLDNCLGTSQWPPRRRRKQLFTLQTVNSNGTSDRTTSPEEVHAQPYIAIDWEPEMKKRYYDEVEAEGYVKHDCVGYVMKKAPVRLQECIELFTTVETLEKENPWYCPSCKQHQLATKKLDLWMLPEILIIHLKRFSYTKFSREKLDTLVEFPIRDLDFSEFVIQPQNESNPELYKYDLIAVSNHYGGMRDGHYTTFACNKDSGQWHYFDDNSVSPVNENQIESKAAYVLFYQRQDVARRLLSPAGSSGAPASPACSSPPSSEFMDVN

On to `O=C(C[C@@H](C(F)F)n1ccc(F)n1)N1CCC(O)(Cn2cnc3c(cnn3-c3ccc(F)cc3)c2=O)CC1` [FT671], for which the IC50 on USP7 turned out to be 286 nM.

As to `Cc1ccc(/C=C2\CNC/C(=C\c3ccc(C)cc3)C2=O)cc1` [NSC632839], at USP2, the “selectivity panel of 41 purified DUBs, ubiquitin-AMC substrate” value was “This screening identified USP7, USP11, USP2, and USP1 as the key targets”. On USP7 (read-out: IC50), the IC50 came to 3820 nM. For the same molecule, the “selectivity panel of 41 purified DUBs, ubiquitin-AMC substrate; ABPP DUBome” value on USP11 is “This screening identified USP7, USP11, USP2, and USP1 as the key targets”; on USP1, “This screening identified USP7, USP11, USP2, and USP1 as the key targets”.

By IC50 is commonly meant the midpoint of a concentration-inhibition curve.
